# Experimental data published in US9757391B2 (priority 2012, dated 2017).
# “Also recorded” adds a separate entry of the source.
# Experiments:
# morphine tolerant rats = conditions: cited from earlier work
# morphine tolerance [1] = conditions: in vivo; cited from earlier work
# morphine tolerance [2] = conditions: rats, cited from earlier work
# mouse [3] = test: General pharmacological screen: depression of behaviour; assay type: in vivo; conditions: 300 mg/kg po
# Description: (§1) A general pharmacological screen was performed on the neuroactive steroid alphadolone.
# mouse [4] = test: General pharmacological screen: maximum tolerated dose, autonomic signs; assay type: in vivo; conditions: 300 mg/kg po
# Description: as §1
# histotoxic hypoxia = assay type: in vivo; conditions: mouse, 100 mg/kg po; ≧50% indicates significant cerebral protection
compound,measurement,setting,value
etanercept,microglia activation and proinflammatory cytokine production,morphine tolerant rats,inhibited
same,morphine tolerance,morphine tolerant rats,reversed the morphine tolerance
C[C@]12CC[C@H](O)CC1=CC[C@@H]1[C@@H]2CC[C@]2(C)C(=O)CC[C@@H]12 [dehydrepiandrsterone],prevention of morphine tolerance,morphine tolerance [1],do prevent morphine tolerance
CC(=O)[C@H]1CC[C@H]2[C@@H]3CC[C@H]4C[C@H](O)CC[C@]4(C)[C@H]3CC[C@]12C [allopregnanolone],prevention of morphine tolerance,morphine tolerance [1],do prevent morphine tolerance
CC(=O)[C@H]1CC[C@H]2[C@@H]3CC=C4C[C@@H](O)CC[C@]4(C)[C@H]3CC[C@]12C [pregnenolone],prevention of morphine tolerance,morphine tolerance [1],do prevent morphine tolerance
"CN1CC[C@]23c4c5ccc(O)c4O[C@H]2[C@@H](O)C=C[C@H]3[C@H]1C5 [M-IR, morphine]","tail flick latency response to M-IR, after M-SR treatment","morphine tolerance [2]; M-IR 6.25 mg/kg ip, after M-SR 125 mg/kg/day sc with vehicle emulsion, mean±SEM, P<0.001",20.3±4.8 % MPE
same,"tail flick latency response to M-IR, pre treatment","morphine tolerance [2]; M-IR 6.25 mg/kg ip, before M-SR treatment, mean±SEM",89.6±2.5 % MPE
C[C@]12CC[C@@H](O)C[C@@H]1CC[C@H]1[C@@H]3CC[C@H](C(=O)CO)[C@@]3(C)CC(=O)[C@@H]12 [alphadolone],occurrence of morphine tolerance (TFL),morphine tolerance [2]; alphadolone emulsion 250 mg/kg sc co-administered with M-SR,prevented the occurrence of morphine tolerance; also recorded: no significant tolerance occurred
same,sedation,morphine tolerance [2]; alphadolone emulsion 250 mg/kg sc with M-SR,did not cause sedation; also recorded: caused no sedation
same,depression of behaviour,mouse [3],no sedation
same,maximum tolerated dose autonomic signs: body temperature,mouse [4],temperature elevation
same,hypoxia KCN test result,histotoxic hypoxia,result = 50; %
